Assays:
rice = assay: Test C flooded paddy test; assay type: in vivo, Oryza sativa; settings: Flood
Procedure, shortened: (§1)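 Compound was added to standing water 3 cm above soil, flood maintained, and plants held in a greenhouse before visual scoring against controls at 13 to 15 days.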

umbrella sedge = assay: Test C flooded paddy test; assay type: in vivo, Cyperus difformis; settings: Flood
Procedure, shortened: as §1

lambsquarters = assay: Test C pre-/postemergence test; assay type: in vivo, Chenopodium album; settings: for Lambsquarters plant response rating: preemergence, scale 0 (no effect) to 100 (complete control)
Procedure, shortened: (§2)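 Test chemicals were formulated with surfactant in a non-phytotoxic solvent and sprayed both on freshly planted seeds (preemergence) and on 1- to 4-leaf plants of 2–18 cm (postemergence). Flooded-paddy pots received compound directly into 3 cm of standing water, maintained for the test.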

crabgrass = assay: Test C pre-/postemergence test; assay type: in vivo, Digitaria sanguinalis
Procedure, shortened: as §2

eastern black nightshade = assay: Test C pre-/postemergence test; assay type: in vivo, Solanum ptycanthum
Procedure, shortened: as §2

morningglory = assay: Test A pre-/postemergence greenhouse test; assay type: in vivo, Ipomoea spp.; settings: for Plant response rating, Morningglory: 0 to 100 scale where 0 is no effect and 100 is complete control; for Morningglory plant response rating: 0 to 100 scale
Procedure, shortened: (§3)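 Untreated controls served as the reference for visual injury ratings taken about ten days after spraying. The non-phytotoxic solvent/surfactant formulation was applied preemergence to seeded loam and sand and postemergence to plants two to ten cm high.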

giant foxtail = assay: Test A pre-/postemergence greenhouse test; assay type: in vivo, Setaria faberi; settings: for Plant response rating, Foxtail, Giant: 0 to 100 scale where 0 is no effect and 100 is complete control; for Foxtail, Giant plant response rating: 0 to 100 scale
Procedure, shortened: as §3

barnyardgrass = assay: Test A pre-/postemergence greenhouse test; assay type: in vivo, Echinochloa crus-galli; settings: for Plant response rating, Barnyardgrass: 0 to 100 scale where 0 is no effect and 100 is complete control; for Barnyardgrass plant response rating: 0 to 100 scale
Procedure, shortened: as §3

wheat [1] = assay: Test C pre-/postemergence test; assay type: in vivo, Triticum aestivum
Procedure, shortened: as §2

corn = assay: Test A pre-/postemergence greenhouse test; assay type: in vivo, Zea mays; settings: for Plant response rating, Corn: 0 to 100 scale where 0 is no effect and 100 is complete control; for Corn plant response rating: 0 to 100 scale
Procedure, shortened: as §3

wheat [2] = assay: Test A pre-/postemergence greenhouse test; assay type: in vivo, Triticum aestivum; settings: for Plant response rating, Wheat: 0 to 100 scale where 0 is no effect and 100 is complete control; for Wheat plant response rating: 0 to 100 scale
Procedure, shortened: as §3

[3] = tested on: common (oilseed) sunflower; assay: Test C pre-/postemergence test; assay type: in vivo, Helianthus annuus
Procedure, shortened: as §2

Goosegrass = assay: Test C pre-/postemergence test; assay type: in vivo, Eleusin indica
Procedure, shortened: as §2

redroot pigweed = assay: Test A pre-/postemergence greenhouse test; assay type: in vivo, Amaranthus retroflexus; settings: for Plant response rating, Pigweed: 0 to 100 scale where 0 is no effect and 100 is complete control; for Pigweed plant response rating: 0 to 100 scale
Procedure, shortened: as §3

Surinam grass = assay: Test C pre-/postemergence test; assay type: in vivo, Brachiaria decumbens; settings: for Plant response rating (0 to 100), Surinam Grass: Postemergence
Procedure, shortened: as §2

pigweed = assay: Test C pre-/postemergence test; assay type: in vivo, Amaranthus retroflexus; settings: for Plant response rating (0 to 100), Pigweed / Plant response rating, Pigweed: Postemergence; for Plant response rating, Pigweed: scale 0 to 100, 0 no effect, 100 complete control
Procedure, shortened: as §2

bermudagrass = assay: Test C pre-/postemergence test; assay type: in vivo, Cynodon dactylon
Procedure, shortened: as §2

[4] = 62 g ai/ha, scale 0 to 100 (0 no effect, 100 complete control)
[5] = 250 g ai/ha, scale 0 to 100, 0 no effect, 100 complete control, 13 to 15 days
[6] = Postemergence, 250 g ai/ha, scale 0 to 100, 0 no effect, 100 complete control
[7] = 62 g ai/ha, Preemergence, scale 0 to 100
[8] = 125 g ai/ha, preemergence, scale 0 (no effect) to 100 (complete control)
[9] = Postemergence, 125 g ai/ha, scale 0 to 100, 0 no effect, 100 complete control
[10] = Preemergence, 31 g ai/ha, scale 0 to 100 (0 no effect, 100 complete control)
[11] = preemergence, 250 g ai/ha, scale 0 (no effect) to 100 (complete control)
[12] = Postemergence, 500 g ai/ha, 0 is no effect, 100 is complete control
[13] = Preemergence, 125 g ai/ha, 0 no effect, 100 complete control

CC(Oc1c(CS(=O)(=O)c2cccc[n+]2[O-])c(C(F)(F)F)nn1C)C(F)(F)F (centres unmarked) [Compound 82]
Plant response rating, Rice (rice; [4]): 0
Plant response rating, Rice (rice; [5]): 60
Plant response rating, Sedge, Umbrella (umbrella sedge; [4]): 100
Plant response rating, Sedge, Umbrella (umbrella sedge; [5]): 100
Lambsquarters plant response rating (lambsquarters; 125 g ai/ha): 0
Plant response rating (0 to 100), Lambsquarters (lambsquarters; Postemergence, 31 g ai/ha): 0
Plant response rating (0 to 100), Lambsquarters (lambsquarters; Postemergence, 62 g ai/ha): 0
Plant response rating, Lambsquarters (lambsquarters; [6]): 0
Lambsquarters plant response rating (lambsquarters; 250 g ai/ha): 100
Crabgrass, Large plant response rating (crabgrass; [7]): 85
Crabgrass, Large plant response rating (crabgrass; [8]): 98
Plant response rating (0 to 100), Crabgrass, Large (crabgrass; Postemergence, 31 g ai/ha): 0
Plant response rating (0 to 100), Crabgrass, Large (crabgrass; Postemergence, 62 g ai/ha): 0
Plant response rating, Crabgrass, Large (crabgrass; [9]): 0
Plant response rating, Crabgrass, Large (crabgrass; [6]): 10
Plant response rating, Crabgrass, Large (crabgrass; [10]): 85
Crabgrass, Large plant response rating (crabgrass; [11]): 100
Nightshade plant response rating (eastern black nightshade; [7]): 40
Nightshade plant response rating (eastern black nightshade; [8]): 80
Plant response rating, Nightshade (eastern black nightshade; [10]): 0
Nightshade plant response rating (eastern black nightshade; [11]): 100
Plant response rating, Morningglory (morningglory; Postemergence, 125 g ai/ha): 40
Morningglory plant response rating (morningglory; [12]): 50
Morningglory plant response rating (morningglory; [13]): 60
Plant response rating, Morningglory (morningglory; Preemergence, 500 g ai/ha): 100
Plant response rating, Foxtail, Giant (giant foxtail; Postemergence, 125 g ai/ha): 90
Foxtail, Giant plant response rating (giant foxtail; [12]): 90
Foxtail, Giant plant response rating (giant foxtail; [13]): 100
Plant response rating, Foxtail, Giant (giant foxtail; Preemergence, 500 g ai/ha): 100
Plant response rating, Barnyardgrass (barnyardgrass; Postemergence, 125 g ai/ha): 70
Barnyardgrass plant response rating (barnyardgrass; [12]): 80
Barnyardgrass plant response rating (barnyardgrass; [13]): 90
Plant response rating, Barnyardgrass (barnyardgrass; Preemergence, 500 g ai/ha): 100
Wheat plant response rating (wheat [1]; [7]): 20
Wheat plant response rating (wheat [1]; [8]): 30
Plant response rating (0 to 100), Wheat (wheat [1]; Postemergence, 31 g ai/ha): 0
Plant response rating (0 to 100), Wheat (wheat [1]; Postemergence, 62 g ai/ha): 20
Plant response rating, Wheat (wheat [1]; [9]): 25
Plant response rating, Wheat (wheat [1]; [6]): 35
Plant response rating, Wheat (wheat [1]; [10]): 10
Wheat plant response rating (wheat [1]; [11]): 60
Plant response rating, Corn (corn; Postemergence, 125 g ai/ha): 0
Corn plant response rating (corn; [12]): 20
Corn plant response rating (corn; [13]): 0
Plant response rating, Corn (corn; Preemergence, 500 g ai/ha): 50
Plant response rating, Wheat (wheat [2]; Postemergence, 125 g ai/ha): 30
Wheat plant response rating (wheat [2]; [12]): 60
Wheat plant response rating (wheat [2]; [13]): 30
Plant response rating, Wheat (wheat [2]; Preemergence, 500 g ai/ha): 70
Sunflower plant response rating [3, 7]: 0
Sunflower plant response rating [3, 8]: 45
Plant response rating, Sunflower [3, 10]: 0
Sunflower plant response rating [3, 11]: 50
Goosegrass plant response rating (Goosegrass; [7]): 100
Goosegrass plant response rating (Goosegrass; [8]): 100
Plant response rating (0 to 100), Goosegrass (Goosegrass; Postemergence, 31 g ai/ha): 0
Plant response rating (0 to 100), Goosegrass (Goosegrass; Postemergence, 62 g ai/ha): 0
Plant response rating, Goosegrass (Goosegrass; [9]): 10
Plant response rating, Goosegrass (Goosegrass; [6]): 40
Plant response rating, Goosegrass (Goosegrass; [10]): 90
Goosegrass plant response rating (Goosegrass; [11]): 100
Plant response rating, Pigweed (redroot pigweed; Postemergence, 125 g ai/ha): 30
Pigweed plant response rating (redroot pigweed; [12]): 70
Pigweed plant response rating (redroot pigweed; [13]): 40
Plant response rating, Pigweed (redroot pigweed; Preemergence, 500 g ai/ha): 100
Surinam Grass plant response rating (Surinam grass; [7]): 80
Surinam Grass plant response rating (Surinam grass; [8]): 90
Plant response rating (0 to 100), Surinam Grass (Surinam grass; 31 g ai/ha): 0
Plant response rating (0 to 100), Surinam Grass (Surinam grass; 62 g ai/ha): 0
Plant response rating, Surinam Grass (Surinam grass; [10]): 70
Surinam Grass plant response rating (Surinam grass; [11]): 90
Pigweed plant response rating (pigweed; [7]): 85
Pigweed plant response rating (pigweed; [8]): 100
Plant response rating (0 to 100), Pigweed (pigweed; 31 g ai/ha): 0
Plant response rating (0 to 100), Pigweed (pigweed; 62 g ai/ha): 0
Plant response rating, Pigweed (pigweed; 125 g ai/ha): 0
Plant response rating, Pigweed (pigweed; 250 g ai/ha): 10
Pigweed plant response rating (pigweed; [11]): 100
Bermudagrass plant response rating (bermudagrass; 62 g ai/ha, Preemergence, scale 0 to 100 (0 no effect, 100 complete control)): 100
Bermudagrass plant response rating (bermudagrass; [8]): 100
Plant response rating (0 to 100), Bermudagrass (bermudagrass; Postemergence, 31 g ai/ha): 0
Plant response rating (0 to 100), Bermudagrass (bermudagrass; Postemergence, 62 g ai/ha): 0
Plant response rating, Bermudagrass (bermudagrass; [9]): 0
Plant response rating, Bermudagrass (bermudagrass; [6]): 0
Plant response rating, Bermudagrass (bermudagrass; [10]): 100
Bermudagrass plant response rating (bermudagrass; [11]): 100

— patent US20100298141A1, “SUBSTITUTED PYRIDINE N-OXIDE HERBICIDES” (E. I. DU PONT DE NEMOURS AND COMPANY, priority 2007, published 2010)
